{"source": "patent US8324280B2", "about": "“Treatment of prostate cancer with DDC inhibitor” (The University of British Columbia, priority 2008, dated 2012)", "key": {"[1]": {"test_system": "neuroendocrine cancer cell lines", "conditions": "including a carcinoid cancer and a small cell lung cancer cell line; cited from earlier work"}, "C4-2 xenografts": {"test_system": "C4-2 xenografts", "experiment": "Androgen-independent C4-2 tumour xenografts in pre-castrated mice", "assay_type": "in vivo", "experimental": "Parental C4-2 cells were inoculated subcutaneously (s.c.), after resuspension in 0.1 mL of Matrigel (Becton Dickinson Labware), into two flank regions (2.5×10^6 cells/site) of 6 to 8 week old castrated (to ensure tumors will be androgen-independent) male athymic nude mice (Harlan Sprague Dawley, Inc.) via a 27-gauge needle under halothane anesthesia. Tumour volume and serum PSA measurements (blood collected from the tail vein) were performed once per week after tumours became palpable. PSA levels were measured by ELISA (ClinPro International) and tumour size was calculated by the formula; length×width×depth×0.5236. Once serum PSA values reached 75-100 ng/mL, mice were treated with or without carbidopa. Carbidopa was purchased from Sigma and dissolved in DMSO. The solution was diluted in PBS to a final concentration of 10% DMSO and sterilized through a 0.2 μm filter. Carbidopa solution was injected intraperitoneally into half of the mice (25 mg per kg of body weight) for the +carbidopa groups, while the remaining mice received vehicle injections consisting of 10% DMSO in PBS (−carbidopa groups). Injections were carried out daily for the duration of the experiment. Each animal group contained 2-3 mice. PSA measurements were used to calculate PSA velocity and volume measurements were used to determine the tumour growth rate for all groups with linear regression slope analysis (see Statistical Analysis below). PSA velocity was defined as the increase in PSA level (normalized to pre-treatment value set at 100%) divided by number of days that PSA was reliably measurable (21 days). […] All animal procedures were performed according to the guidelines of the Canadian Council of Animal Care and with appropriate institutional certification. C4-2 xenograft tumour volume and PSA values (−/+carbidopa) were used for linear regression slope analysis to determine PSA velocity and tumour growth rate with GraphPad Prism 4, version 4.03. PSA velocity and tumour growth rate differences were determined using the Student's t-test."}, "[2]": {"test_system": "pure neuroendocrine tumour", "conditions": "in combination with other drugs; implanted prostate NE cancer cells; cited from earlier work"}, "LNCaP-DDC xenografts": {"test_system": "LNCaP-DDC xenografts", "experiment": "LNCaP-DDC (DDC overexpressing) tumour xenografts with carbidopa treatment", "assay_type": "in vivo, mice", "conditions": "25 mg/kg intraperitoneally daily, Dox", "experimental": "LNCaP-DDC and LNCaP-Vector control cells were inoculated subcutaneously (s.c.), after resuspension in 0.1 mL of Matrigel (Becton Dickinson Labware), into two flank regions (2.5×10^6 cells/site) of 6 to 8 week old male athymic nude mice (Harlan Sprague Dawley, Inc.) via a 27-gauge needle under halothane anesthesia. Tumour volume and serum PSA measurements (blood collected from the tail vein) were performed once per week after tumours became palpable. PSA levels were measured by ELISA (ClinPro International) and tumour size was calculated by the formula; length×width×depth×0.5236. Once serum PSA values reached 75-100 ng/mL, mice in both the LNCaP-DDC and LNCaP-Vector control groups were given Dox-treated water (200 μg/mL) and treated with or without carbidopa. Carbidopa was purchased from Sigma and dissolved in DMSO. The solution was diluted in PBS to a final concentration of 10% DMSO and sterilized through a 0.2 μm filter. Carbidopa solution was injected intraperitoneally into half of the mice (25 mg per kg of body weight) for the +carbidopa groups, while the remaining mice received vehicle injections consisting of 10% DMSO in PBS (−carbidopa groups). Injections were carried out daily for the duration of the experiment. […] PSA velocity and tumour growth rate differences were determined by one-way ANOVA and Tukey's multiple comparison test. […]"}, "DU 145": {"test_system": "DU 145", "conditions": "cited from earlier work"}, "C4-2 cells": {"test_system": "C4-2 cells", "experiment": "MTS cell proliferation assay, androgen-independent C4-2 cells", "assay_type": "cell-based, human", "conditions": "25 μM", "experimental": "Cell proliferation assays were performed using the 3-(4,5-dimethylhiazol-2-yl)-5-(3-carboxymethoxyphenyl)-2-(4-sulfophenyl)-2H-tetrazolium Assay (MTS) according to the manufacturer's protocol, with minor modifications (Promega). C4-2 cells were plated in 96-well plates at a density of 750 cells per well in RPMI medium containing 5% CSS for 1 day. On the following day, the DDC inhibitors, carbidopa (25 μM) and NSD-1015 (10 μM)±0.1 nM R1881 were added to each well in charcoal-stripped serum (CSS; Hyclone, VWR) RPMI media. The cells were harvested at days 0, 2, 4, and 6, with a medium change every 3 days. Each time point was measured with 6 replicates.\n(§1) Student's t-test (two-sample equal variance) was used to evaluate statistically significant differences. All calculated p-values were two-sided and those less than 0.05 were considered statistically significant."}, "LNCaP cells": {"test_system": "LNCaP cells", "experiment": "MTS cell proliferation assay, androgen-dependent LNCaP cells", "assay_type": "cell-based, human", "conditions": "50 μM", "experimental": "Cell proliferation assays were performed using the 3-(4,5-dimethylhiazol-2-yl)-5-(3-carboxymethoxyphenyl)-2-(4-sulfophenyl)-2H-tetrazolium Assay (MTS) according to the manufacturer's protocol, with minor modifications (Promega). LNCaP cells were plated in 96-well plates at a density of 3000 cells per well and incubated in RPMI medium containing 5% CSS for one day. On the following day, the DDC inhibitors, carbidopa (25 and 50 μM) and NSD-1015 (10 μM)±0.1 nM R1881 were added to each well in charcoal-stripped serum (CSS; Hyclone, VWR) RPMI media. The cells were harvested at days 0, 2, 4, 6 and 8, with a medium change every 3 days. Each time point was measured with 6 replicates.\nas §1"}}}
{"smiles": "C[C@@](Cc1ccc(O)c(O)c1)(NN)C(=O)O", "note": "[carbidopa, α-Methyl-dopahydrazine]", "values": [{"measurement": "lethality to cancer cell lines", "setting": "[1]", "result": "lethal to several but not all tested neuroendocrine cancer cell lines"}, {"measurement": "reduction of tumour growth rate versus control", "setting": "C4-2 xenografts; 21 days", "result": 2.1, "unit": "fold"}, {"measurement": "decrease in PSA velocity versus control non-treated", "setting": "C4-2 xenografts; over 21 days", "result": 4.1, "unit": "fold"}, {"measurement": "tumour growth rate", "setting": "C4-2 xenografts; pre-castrated mice, 25 mg/kg i.p. daily, 21 days", "result": "5.7±0.6"}, {"measurement": "PSA velocity (rate of PSA production)", "setting": "C4-2 xenografts; pre-castrated mice, 25 mg/kg i.p. daily, over 21 days", "result": "4.7±2"}, {"measurement": "reduction of tumour growth", "setting": "[2]", "result": 40, "unit": "%"}, {"measurement": "PSA velocity (rate of PSA production)", "setting": "LNCaP-DDC xenografts; over 35 days, PSA normalized to pre-treatment 100%", "result": "14.7±0.6"}, {"measurement": "tumour growth rate", "setting": "LNCaP-DDC xenografts; over 49 days, volume normalized to pre-treatment 100%", "result": "22.5±3"}, {"measurement": "effect on proliferation", "setting": "DU 145", "result": "did not affect proliferation"}, {"measurement": "reduction of number of cells relative to control non-treated cells", "setting": "C4-2 cells; day 6, absence of androgen", "result": 1.58, "unit": "fold"}, {"measurement": "reduction of number of cells relative to control non-treated cells", "setting": "C4-2 cells; day 6, presence of androgen (0.1 nM R1881)", "result": 1.80, "unit": "fold"}, {"measurement": "reduction of number of cells relative to control non-treated cells", "setting": "LNCaP cells; day 8, absence of androgen", "result": 1.42, "unit": "fold"}, {"measurement": "reduction of number of cells relative to control non-treated cells", "setting": "LNCaP cells; day 8, presence of androgen (0.1 nM R1881)", "result": 1.69, "unit": "fold"}]}
